Source: PubChem BioAssay (NCI)
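Following 48 hours of exposure in 96-well plates, responses at five concentrations were used to interpolate endpoints linearly. GI50 = concentration required for 50% inhibition of growth. Definition used: TGI = concentration required for complete inhibition of growth.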

Experiments:
Test in all cases: NCI-60 cell line screen, 48 h
HOP-62 NSCLC = tested on: HOP-62 NSCLC
K-562 leukemia = tested on: K-562 leukemia
MOLT-4 leukemia = tested on: MOLT-4 leukemia
OVCAR-3 ovarian = tested on: OVCAR-3 ovarian
SK-MEL-28 melanoma = tested on: SK-MEL-28 melanoma
SNB-19 CNS = tested on: SNB-19 CNS
SW-620 colon = tested on: SW-620 colon
U251 CNS = tested on: U251 CNS
BT-549 breast = tested on: BT-549 breast
HS 578T breast = tested on: HS 578T breast
T-47D breast = tested on: T-47D breast
SNB-75 CNS = tested on: SNB-75 CNS

| Compound | TGI (HOP-62 NSCLC) | TGI (K-562 leukemia) | TGI (MOLT-4 leukemia) | TGI (OVCAR-3 ovarian) | TGI (SK-MEL-28 melanoma) | TGI (SNB-19 CNS) | TGI (SW-620 colon) | TGI (U251 CNS) | TGI (BT-549 breast) | TGI (HS 578T breast) | TGI (T-47D breast) | TGI (SNB-75 CNS) | GI50 (HOP-62 NSCLC) | GI50 (HS 578T breast) | GI50 (K-562 leukemia) | GI50 (MOLT-4 leukemia) | GI50 (OVCAR-3 ovarian) | GI50 (SK-MEL-28 melanoma) | GI50 (SW-620 colon) | GI50 (U251 CNS) |
| --- | --- | --- | --- | --- | --- | --- | --- | --- | --- | --- | --- | --- | --- | --- | --- | --- | --- | --- | --- | --- |
| O=C1c2ccccc2C(=O)N1CC(O)COc1cccc2ccccc12 (centres undefined) | > 100 µM | > 100 µM | > 100 µM | > 100 µM | > 100 µM | > 100 µM | > 100 µM | > 100 µM |  |  |  |  |  |  |  |  |  |  |  |  |
| NC(=S)N/N=C\c1nccc2ccccc12 |  | > 50 µM | 0.827 µM | > 100 µM | 0.951 µM | > 100 µM | > 100 µM | > 58.6 µM | 13.9 µM | > 100 µM | > 100 µM |  |  |  |  |  |  |  |  |  |
| Cc1ccc(S(=O)(=O)N2CCCSCC2)cc1 |  | > 100 µM | > 100 µM |  | > 100 µM | > 100 µM | > 100 µM | > 100 µM |  | > 100 µM | > 100 µM | > 100 µM |  |  |  |  |  |  |  |  |
| CCCC(=O)Nc1cc(/C=C/C(=O)N2CC(CCl)c3c2cc(O)c2[nH]cc(C)c32)n(C)c1 (centres undefined) | < 2.5e-05 µM | > 0.25 µM | 0.0121 µM |  | > 0.25 µM | 0.00608 µM | > 0.25 µM | 0.0449 µM | 0.000504 µM | 6.35e-05 µM | 0.00884 µM | < 2.5e-05 µM |  |  |  |  |  |  |  |  |
| Oc1ccc(-c2nc3ccc(Cl)cc3s2)cc1 |  | > 100 µM | > 100 µM | 40.7 µM |  | 40.4 µM | 39.3 µM | 46.9 µM | 33.3 µM |  |  |  |  |  |  |  |  |  |  |  |
| CC1(C)OCC=CCO1 | > 100 µM | > 100 µM | > 100 µM | > 100 µM | > 100 µM | > 100 µM | > 100 µM | > 100 µM | > 100 µM | > 100 µM | > 100 µM | > 100 µM |  |  |  |  |  |  |  |  |
| COc1cc2c(cc1OCCCC(=O)Nc1ccc3ccc4cccc5ccc1c3c45)N=C[C@@H]1CCCN1C2=O | 1.74 µM | 14.1 µM | 0.355 µM | 0.518 µM | < 0.01 µM |  | 0.0483 µM | > 100 µM |  | 0.064 µM |  | 1.12 µM | < 0.01 µM | < 0.0167 µM | 0.19 µM | 0.0987 µM | 0.197 µM | < 0.01 µM | < 0.0126 µM | < 0.01 µM |
| CC(=O)c1cc2ccccc2oc1=O | > 100 µM | > 100 µM | > 100 µM | > 100 µM | > 100 µM | > 100 µM | > 100 µM | > 100 µM | > 100 µM | > 100 µM |  | > 100 µM |  |  |  |  |  |  |  |  |
| COc1cc(C(O)(CC#N)c2cc3c(cc2Br)OCO3)cc(OC)c1OC (centres undefined) | 35.9 µM | > 100 µM | > 100 µM | > 100 µM | > 100 µM | 76.1 µM | > 100 µM | > 100 µM | > 100 µM |  | > 100 µM | > 100 µM |  |  |  |  |  |  |  |  |
| O=C1C(Cl)=C(Nc2ccc(S(=O)(=O)Nc3ccccn3)cc2)C(=O)c2ccccc21 | 29.9 µM | 16.5 µM | 25.5 µM | 15.6 µM | 42.9 µM | 38.7 µM | > 73.5 µM | 19.3 µM | 29.8 µM | 48 µM | 39.7 µM | 21.9 µM |  |  |  |  |  |  |  |  |
| CC1=C(C)Cc2c(O)ccc(O)c2C1 | 50.1 µM | 49.8 µM | 97.2 µM | 43.2 µM | 25 µM | > 100 µM | 37.6 µM | 34.2 µM |  | 33.6 µM | 63.4 µM | 31.3 µM |  |  |  |  |  |  |  |  |
